Test results published in ChEMBL document CHEMBL5360608 (ACS Med Chem Lett, 2023).
Activity calls are given as the source filed them. The calls are words filed in the database; no cut-off is given here.

Experiments:
[1] = target: T1, Sodium channel protein type 4 subunit alpha (Homo sapiens, UniProt P35499); experiment: Inhibition of human Nav 1.4 expressed in HEK293T cells assessed as phasic block at 10 Hz by whole cell patch clamp assay; assay type: cell-based
[2] = target: T1, Sodium channel protein type 4 subunit alpha; experiment: Inhibition of human Nav 1.4 expressed in HEK293T cells assessed as tonic block at 0.1 Hz by whole cell patch clamp assay; assay type: cell-based
Homo sapiens [3] = species: Homo sapiens; experiment: Selectivity ratio of IC50 for human Nav 1.4 expressed in HEK293T cells assessed as tonic block at 0.1 Hz to IC50 for human Nav 1.4 expressed in HEK293T cells assessed as phasic block at 10 Hz; assay type: cell-based
Mus musculus [4] = experiment: Analgesic activity in po dosed mouse assessed as licking latency at 77 uM measured after 30 mins by hot plate test (reference value: 14.5 to 15.7 sec); assay type: functional; settings: 0.5 h
Rattus norvegicus [5] = species: Rattus norvegicus; experiment: Reduction in 9-anthracene carboxylic acid induced myotonic-like condition in Wistar rat skeletal muscle fiber by measuring electable action potential at 0.3 to 10 uM by two intracellular microelectrode current-clamp method; assay type: functional, tissue-based; settings: Skeletal muscle tissue, dose 0.3-10 µM
Mus musculus [6] = experiment: Analgesic activity in po dosed mouse assessed as alterations in motor coordination at high dose by hot plate test; assay type: functional, organism-based
Mus musculus [7] = experiment: Analgesic activity in po dosed mouse assessed as licking latency at 77 uM measured after 45 mins by hot plate test (reference value: 14.5 to 15.7 sec); assay type: functional; settings: 0.75 h
Mus musculus [8] = experiment: Analgesic activity in po dosed mouse assessed as alteration in spontaneous motility at high dose by hot plate test; assay type: functional, organism-based
Mus musculus [9] = experiment: Analgesic activity in po dosed mouse assessed as licking latency at 77 uM measured after 60 mins by hot plate test (reference value: 14.5 to 15.7 sec); assay type: functional; settings: 1 h
Mus musculus [10] = experiment: Analgesic activity in po dosed mouse assessed as licking latency at 77 uM measured after 15 mins by hot plate test (reference value: 14.5 to 15.7 sec); assay type: functional; settings: 0.25 h
[11] = target: T2, Sodium channel protein type 9 subunit alpha (Homo sapiens, UniProt Q15858); experiment: Inhibition of human Nav 1.7 expressed in HEK293T cells assessed as tonic block at 0.1 Hz by whole cell patch clamp assay; assay type: cell-based
Rattus norvegicus [12] = species: Rattus norvegicus; experiment: Reduction in 9-anthracene carboxylic acid induced myotonic-like condition in Wistar rat skeletal muscle fiber by measuring electable action potential at upto 10 uM by two intracellular microelectrode current-clamp method; assay type: functional, tissue-based; settings: Skeletal muscle tissue
[13] = target: T2, Sodium channel protein type 9 subunit alpha; experiment: Inhibition of human Nav 1.7 expressed in HEK293T cells assessed as phasic block at 10 Hz by whole cell patch clamp assay; assay type: cell-based
Homo sapiens [14] = species: Homo sapiens; experiment: Selectivity ratio of IC50 for human Nav 1.7 expressed in HEK293T cells assessed as tonic block at 0.1 Hz to IC50 for human Nav 1.7 expressed in HEK293T cells assessed as phasic block at 10 Hz; assay type: cell-based

T1 sequence (P35499 whole entry): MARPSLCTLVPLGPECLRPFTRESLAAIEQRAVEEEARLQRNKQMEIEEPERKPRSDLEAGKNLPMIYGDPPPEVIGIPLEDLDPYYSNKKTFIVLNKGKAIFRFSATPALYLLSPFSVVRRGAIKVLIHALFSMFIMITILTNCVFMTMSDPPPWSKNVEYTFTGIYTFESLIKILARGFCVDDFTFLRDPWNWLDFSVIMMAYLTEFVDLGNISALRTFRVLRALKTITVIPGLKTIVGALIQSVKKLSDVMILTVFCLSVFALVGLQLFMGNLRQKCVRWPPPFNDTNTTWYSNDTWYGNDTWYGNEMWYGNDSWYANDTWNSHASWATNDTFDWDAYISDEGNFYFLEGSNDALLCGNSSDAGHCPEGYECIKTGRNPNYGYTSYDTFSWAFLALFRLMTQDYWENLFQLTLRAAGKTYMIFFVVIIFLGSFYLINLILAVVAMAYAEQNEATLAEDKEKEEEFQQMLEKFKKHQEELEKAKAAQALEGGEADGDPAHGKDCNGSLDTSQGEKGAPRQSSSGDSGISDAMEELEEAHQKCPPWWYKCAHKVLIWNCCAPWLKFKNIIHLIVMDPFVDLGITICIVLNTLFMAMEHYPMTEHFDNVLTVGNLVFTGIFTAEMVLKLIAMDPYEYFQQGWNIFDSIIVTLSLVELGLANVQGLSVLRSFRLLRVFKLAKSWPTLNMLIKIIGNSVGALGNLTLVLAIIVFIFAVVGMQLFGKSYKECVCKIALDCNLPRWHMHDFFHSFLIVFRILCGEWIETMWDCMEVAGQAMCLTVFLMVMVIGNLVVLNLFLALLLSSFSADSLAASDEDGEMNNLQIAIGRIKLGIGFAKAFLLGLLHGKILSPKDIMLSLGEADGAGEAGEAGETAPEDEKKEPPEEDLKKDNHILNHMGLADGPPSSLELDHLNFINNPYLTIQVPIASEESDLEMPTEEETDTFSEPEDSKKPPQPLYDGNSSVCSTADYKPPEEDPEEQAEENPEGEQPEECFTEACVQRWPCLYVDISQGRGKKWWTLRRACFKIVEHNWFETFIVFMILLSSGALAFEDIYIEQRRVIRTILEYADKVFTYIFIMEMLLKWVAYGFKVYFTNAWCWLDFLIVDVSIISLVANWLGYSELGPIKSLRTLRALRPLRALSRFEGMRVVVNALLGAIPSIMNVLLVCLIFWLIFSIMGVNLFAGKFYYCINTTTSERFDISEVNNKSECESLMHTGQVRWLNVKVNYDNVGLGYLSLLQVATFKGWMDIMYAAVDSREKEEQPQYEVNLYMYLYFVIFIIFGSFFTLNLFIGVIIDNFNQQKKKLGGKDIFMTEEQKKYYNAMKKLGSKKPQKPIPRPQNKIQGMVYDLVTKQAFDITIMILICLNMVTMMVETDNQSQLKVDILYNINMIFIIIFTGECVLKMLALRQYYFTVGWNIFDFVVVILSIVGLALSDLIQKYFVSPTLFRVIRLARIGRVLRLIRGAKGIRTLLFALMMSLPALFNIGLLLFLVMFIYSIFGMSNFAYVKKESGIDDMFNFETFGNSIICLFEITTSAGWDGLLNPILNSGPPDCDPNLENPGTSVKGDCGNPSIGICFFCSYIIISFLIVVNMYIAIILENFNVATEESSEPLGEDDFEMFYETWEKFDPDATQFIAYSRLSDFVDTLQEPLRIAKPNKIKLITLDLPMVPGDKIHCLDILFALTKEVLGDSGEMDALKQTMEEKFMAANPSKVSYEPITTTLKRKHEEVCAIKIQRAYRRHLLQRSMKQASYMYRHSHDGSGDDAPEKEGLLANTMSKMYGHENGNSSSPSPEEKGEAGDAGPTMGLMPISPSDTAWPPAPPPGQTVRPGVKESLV
T2 sequence (Q15858 whole entry): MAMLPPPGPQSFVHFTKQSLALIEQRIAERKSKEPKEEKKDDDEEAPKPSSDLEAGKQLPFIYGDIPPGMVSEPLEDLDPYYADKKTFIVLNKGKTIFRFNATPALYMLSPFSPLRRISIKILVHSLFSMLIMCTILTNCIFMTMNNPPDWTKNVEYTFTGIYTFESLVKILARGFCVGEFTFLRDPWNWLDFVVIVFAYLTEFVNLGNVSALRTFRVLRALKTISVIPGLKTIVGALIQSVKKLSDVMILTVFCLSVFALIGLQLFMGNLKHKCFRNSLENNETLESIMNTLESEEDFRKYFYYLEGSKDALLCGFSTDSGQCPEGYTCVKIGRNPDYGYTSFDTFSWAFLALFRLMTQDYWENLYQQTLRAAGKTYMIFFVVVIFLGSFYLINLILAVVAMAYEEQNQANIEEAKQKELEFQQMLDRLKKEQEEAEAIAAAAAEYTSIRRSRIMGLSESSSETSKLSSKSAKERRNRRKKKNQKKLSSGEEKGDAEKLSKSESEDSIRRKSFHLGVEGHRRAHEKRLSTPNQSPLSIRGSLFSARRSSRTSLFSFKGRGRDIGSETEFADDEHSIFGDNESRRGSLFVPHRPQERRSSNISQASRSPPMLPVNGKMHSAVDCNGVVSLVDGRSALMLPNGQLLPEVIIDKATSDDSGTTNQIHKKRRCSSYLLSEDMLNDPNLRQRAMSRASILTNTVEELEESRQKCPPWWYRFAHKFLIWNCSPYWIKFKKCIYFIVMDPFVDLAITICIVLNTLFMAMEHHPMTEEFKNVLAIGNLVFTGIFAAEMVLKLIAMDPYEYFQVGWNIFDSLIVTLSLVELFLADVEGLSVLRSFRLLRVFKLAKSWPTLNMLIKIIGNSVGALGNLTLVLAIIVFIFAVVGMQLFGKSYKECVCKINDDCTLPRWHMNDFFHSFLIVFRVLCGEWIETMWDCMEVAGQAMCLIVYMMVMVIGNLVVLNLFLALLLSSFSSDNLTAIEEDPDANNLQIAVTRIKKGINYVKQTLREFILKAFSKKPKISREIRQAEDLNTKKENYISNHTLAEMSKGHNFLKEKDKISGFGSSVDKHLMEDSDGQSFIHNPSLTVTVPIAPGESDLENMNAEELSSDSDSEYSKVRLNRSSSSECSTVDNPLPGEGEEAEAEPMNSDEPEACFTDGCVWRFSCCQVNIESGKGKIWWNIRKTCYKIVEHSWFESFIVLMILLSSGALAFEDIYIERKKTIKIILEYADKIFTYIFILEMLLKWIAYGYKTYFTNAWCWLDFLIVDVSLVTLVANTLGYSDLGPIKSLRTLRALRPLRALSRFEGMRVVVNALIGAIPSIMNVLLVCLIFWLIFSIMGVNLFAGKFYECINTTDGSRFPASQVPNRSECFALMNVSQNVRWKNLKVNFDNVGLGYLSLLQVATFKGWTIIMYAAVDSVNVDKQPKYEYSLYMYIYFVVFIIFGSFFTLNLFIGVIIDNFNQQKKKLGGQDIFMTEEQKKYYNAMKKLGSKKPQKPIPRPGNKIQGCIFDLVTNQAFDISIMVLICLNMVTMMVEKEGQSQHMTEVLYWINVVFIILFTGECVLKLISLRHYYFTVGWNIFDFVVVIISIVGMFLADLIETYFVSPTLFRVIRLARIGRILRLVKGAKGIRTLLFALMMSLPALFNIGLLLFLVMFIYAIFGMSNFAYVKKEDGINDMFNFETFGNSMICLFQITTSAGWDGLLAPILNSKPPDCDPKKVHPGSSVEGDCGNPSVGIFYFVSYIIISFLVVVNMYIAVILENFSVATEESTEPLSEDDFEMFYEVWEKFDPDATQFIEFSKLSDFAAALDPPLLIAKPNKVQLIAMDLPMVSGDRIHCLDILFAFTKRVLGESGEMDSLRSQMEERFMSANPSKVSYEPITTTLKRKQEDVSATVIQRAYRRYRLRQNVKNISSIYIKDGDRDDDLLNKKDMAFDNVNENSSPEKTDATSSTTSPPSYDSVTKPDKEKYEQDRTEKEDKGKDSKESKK

| IC50 [1] | IC50 [2] | IC50 [11] | IC50 [13] | Structure (SMILES) | Ratio IC50 (Homo sapiens [3]) | Activity (Mus musculus [4]) | Activity (Rattus norvegicus [5]) | Activity (Mus musculus [6]) | Activity (Mus musculus [7]) | Activity (Mus musculus [8]) | Activity (Mus musculus [9]) | Activity (Mus musculus [10]) | Activity (Rattus norvegicus [12]) | Ratio IC50 (Homo sapiens [14]) |
| --- | --- | --- | --- | --- | --- | --- | --- | --- | --- | --- | --- | --- | --- | --- |
| 53 µM | 58 µM | – | – | Nc1nc2ccc(C(F)(F)F)cc2s1 | 1.1 | – | – | – | – | – | – | – | – | – |
| 51 µM | 63 µM | – | – | Nc1nc2ccc(OC(F)(F)F)cc2s1 [RILUZOLE] | – | 25.6 s | Active | inactive | 24.3 s | inactive | 18.3 s | 20.5 s | – | – |
| 63 µM | 250 µM | 106 µM | 48 µM | c1ccc(Oc2ccc3nc(N4CCNCC4)sc3c2)cc1 | 4 | 26.2 s | – | inactive | 23.1 s | inactive | 19.9 s | 21.6 s | inactive | 2.2 |
| 38 µM | 95 µM | 52 µM | 24 µM | FC(F)(F)Oc1ccc2nc(N3CCNCC3)sc2c1 | 2.5 | 18.8 s | – | – | 17.3 s | – | 15.5 s | 16.8 s | – | 2.2 |
| 89 µM | 118 µM | – | – | CC(C)c1ccc2nc(N)sc2c1 | 1.3 | – | – | – | – | – | – | – | – | – |
| – | – | – | – | CNCCN(C)c1nc2ccc(OC(F)(F)F)cc2s1 | – | 18 s | – | – | 16.6 s | – | 16 s | 17.8 s | – | – |
